Data: patent US12655116B2, “Substituted isophthalic acid diamides” (Bayer Aktiengesellschaft, priority 2020, dated 2026)

Columns and labels:
AVEFA [1] = experiment: Post-emergence herbicidal action against AVEFA; assay type: in vivo, Avena fatua; conditions: 20 g/ha, visual assessment about 3 weeks after treatment, 100% = plants have died, 0% = like control plants
Procedure: Seeds of monocotyledonous and dicotyledonous weed and crop plants are laid out in sandy loam soil in wood-fiber pots, covered with soil and cultivated in a greenhouse under good growth conditions. 2 to 3 weeks after sowing, the test plants are treated at the one-leaf stage. The compounds of the invention, formulated in the form of wettable powders (WP) or as emulsion concentrates (EC), are then sprayed onto the green parts of the plants in the form of an aqueous suspension or emulsion at a water application rate equivalent to 600 to 800 l/ha, with addition of 0.2% wetting agent. After the test plants have been left to stand in the greenhouse under optimal growth conditions for about 3 weeks, the action of the preparations is assessed visually in comparison to untreated controls (herbicidal action in percent (%): 100% activity=the plants have died, 0% activity=like control plants). […] The tables below illustrate, in an illustrative manner, the post-emergence herbicidal action of the compounds of the invention, the herbicidal activity being stated in percent.

SETVI [2] = experiment: Pre-emergence herbicidal action against SETVI; assay type: in vivo, Setaria viridis
In short: (§1)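 Greenhouse pots of sandy loam held seeds covered with soil, onto which the compound was applied before emergence. An aqueous suspension or emulsion of WP or EC was used at 600 to 800 l/ha with 0.2% wetting agent. Percent damage was judged visually at 3 weeks.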

ABUTH [3] = experiment: Pre-emergence herbicidal action against ABUTH; assay type: in vivo, Abutilon theophrasti; conditions: for Pre-emergence action against ABUTH (herbicidal activity): 80 g/ha, scored visually after 3 weeks vs untreated controls (100% = plants have died, 0% = like control plants); for Pre-emergence action against ABUTH (herbicidal activity in percent): dosage 20 g/ha, scored visually after 3 weeks vs untreated controls, 100% = plants have died, 0% = like control plants
In short: as §1

ECHCG [4] = experiment: Post-emergence herbicidal action against ECHCG; assay type: in vivo, Echinochloa crus-galli
In short: (§2)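 A WP or EC formulation diluted in water with 0.2% wetting agent was sprayed at 600 to 800 l/ha onto one-leaf-stage plants grown in sandy loam. About 3 weeks later, action was rated visually in percent, 100% being dead plants.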

PHBPU [5] = experiment: Post-emergence herbicidal action against PHBPU; assay type: in vivo, Pharbitis purpurea
In short: as §2

VIOTR [6] = experiment: Pre-emergence herbicidal action against VIOTR; assay type: in vivo, Viola tricolor
In short: as §1

AVEFA [7] = experiment: Pre-emergence herbicidal action against AVEFA; assay type: in vivo, Avena fatua; conditions: 80 g/ha, pre-emergence
In short: as §1

ALOMY [8] = experiment: Post-emergence herbicidal action against ALOMY; assay type: in vivo, Alopecurus myosuroides; conditions: dosage 20 g/ha, visual assessment about 3 weeks after treatment vs untreated controls
In short: as §2

AMARE [9] = experiment: Pre-emergence herbicidal action against AMARE; assay type: in vivo, Amaranthus retroflexus
In short: as §1

MATIN [10] = experiment: Pre-emergence herbicidal action against MATIN; assay type: in vivo, Matricaria inodora
In short: as §1

ALOMY [11] = experiment: Pre-emergence herbicidal action against ALOMY; assay type: in vivo, Alopecurus myosuroides; conditions: 80 g/ha, pre-emergence, scored visually after 3 weeks vs untreated controls (100% = plants have died, 0% = like control plants)
In short: as §1

DIGSA = experiment: Pre-emergence herbicidal action against DIGSA; assay type: in vivo, Digitaria sanguinalis
In short: as §1

ABUTH [12] = experiment: Post-emergence herbicidal action against ABUTH; assay type: in vivo, Abutilon theophrasti; conditions: visual assessment about 3 weeks after treatment vs untreated controls
In short: as §2

ECHCG [13] = experiment: Pre-emergence herbicidal action against ECHCG; assay type: in vivo, Echinochloa crus-galli; conditions: 80 g/ha
In short: as §1

PHBPU [14] = experiment: Pre-emergence herbicidal action against PHBPU; assay type: in vivo, Pharbitis purpurea; conditions: dosage 80 g/ha
In short: as §1

AMARE [15] = experiment: Post-emergence herbicidal action against AMARE; assay type: in vivo, Amaranthus retroflexus; conditions: 20 g/ha, visual assessment about 3 weeks after treatment, 100% = plants have died, 0% = like control plants
In short: as §2

SETVI [16] = experiment: Post-emergence herbicidal action against SETVI; assay type: in vivo, Setaria viridis
In short: as §2

VERPE [17] = experiment: Post-emergence herbicidal action against VERPE; assay type: in vivo, Veronica persica; conditions: 20 g/ha
In short: as §2

MATIN [18] = experiment: Post-emergence herbicidal action against MATIN; assay type: in vivo, Matricaria inodora
In short: as §2

VIOTR [19] = experiment: Post-emergence herbicidal action against VIOTR; assay type: in vivo, Viola tricolor
In short: as §2

VERPE [20] = experiment: Pre-emergence herbicidal action against VERPE; assay type: in vivo, Veronica persica
In short: as §1

[21] = 20 g/ha, scored visually after 3 weeks vs untreated controls, 100% = plants have died, 0% = like control plants
[22] = 80 g/ha, scored visually after 3 weeks vs untreated controls (100% = plants have died, 0% = like control plants)

For Cc1c(C(=O)Nc2nnnn2C)ccc(C(F)(F)F)c1C(=O)NCC(F)F [Example 1-30], the “Post-emergence action at 20 g/ha against AVEFA in %” value (AVEFA [1]) was 80%, the “Pre-emergence action against SETVI in %” value (SETVI [2]; dosage 20 g/ha) was 90% and the “Pre-emergence action against SETVI in %” value (SETVI [2]; dosage 80 g/ha) was 100%. The “Pre-emergence action against ABUTH (herbicidal activity)” value (ABUTH [3]) was 100%, the “Pre-emergence action against ABUTH (herbicidal activity in percent)” value (ABUTH [3]) was 100% and the “Post-emergence action against ECHCG in %” value (ECHCG [4]; dosage 20 g/ha) was 80%. For the same molecule, the “Post-emergence action against PHBPU in %” value (PHBPU [5]; dosage 20 g/ha) was 80%, the “Pre-emergence action against VIOTR in %” value (VIOTR [6]; dosage 20 g/ha) was 100% and the “Pre-emergence action against VIOTR in %” value (VIOTR [6]; dosage 80 g/ha) was 100%. The “Pre-emergence action against AVEFA in %” value (AVEFA [7]) was 100%, the “Post-emergence action against ALOMY in %” value (ALOMY [8]) was 80% and the “Pre-emergence action against AMARE in %” value (AMARE [9]; [21]) was 100%. For the same molecule, the “Pre-emergence action against AMARE in %” value (AMARE [9]; [22]) was 100%, the “Pre-emergence action against MATIN in %” value (MATIN [10]; dosage 20 g/ha) was 100% and the “Pre-emergence action against MATIN in %” value (MATIN [10]; dosage 80 g/ha) was 100%. For the same molecule, the “Pre-emergence action against ALOMY (herbicidal activity)” value (“Pre-emergence action against ALOMY” for short) (ALOMY [11]) was 80%, the “Pre-emergence action against DIGSA in %” value (DIGSA; dosage 20 g/ha) was 100% and the “Pre-emergence action against DIGSA in %” value (DIGSA; dosage 80 g/ha) was 100%. For the same molecule, the “Post-emergence action against ABUTH in %” value (ABUTH [12]; dosage 5 g/ha) was 80%, the “Post-emergence action against ABUTH in %” value (ABUTH [12]; dosage 20 g/ha) was 80% and the “Pre-emergence action against ECHCG in %” value (ECHCG [13]) was 80%. The “Pre-emergence action against PHBPU in %” value (PHBPU [14]) was 100%.
For CSc1c(C(=O)Nc2nnnn2C)ccc(C(F)(F)F)c1C(=O)NCC1CC1 [Example 1-84], the “Post-emergence action at 20 g/ha against AVEFA in %” value (AVEFA [1]) was 80%, the “Pre-emergence action against SETVI in %” value (SETVI [2]; dosage 80 g/ha) was 100% and the “Pre-emergence action against ABUTH (herbicidal activity)” value (ABUTH [3]) was 100%. The “Pre-emergence action against ABUTH (herbicidal activity in percent)” value (ABUTH [3]) was 100%, the “Post-emergence action against ECHCG in %” value (ECHCG [4]; dosage 20 g/ha) was 100% and the “Post-emergence action against PHBPU in %” value (PHBPU [5]; dosage 5 g/ha) was 90%. The “Post-emergence action against PHBPU in %” value (PHBPU [5]; dosage 20 g/ha) was 90%, the “Pre-emergence action against VIOTR in %” value (VIOTR [6]; dosage 80 g/ha) was 100% and the “Pre-emergence action against AVEFA in %” value (AVEFA [7]) was 100%. The “Post-emergence action against ALOMY in %” value (ALOMY [8]) was 100%, the “Post-emergence action at 20 g/ha against AMARE in %” value (AMARE [15]) was 100% and the “Pre-emergence action against AMARE in %” value (AMARE [9]; [21]) was 100%. For the same molecule, the “Pre-emergence action against AMARE in %” value (AMARE [9]; [22]) was 100%, the “Post-emergence action against SETVI in %” value (SETVI [16]; dosage 5 g/ha) was 100% and the “Post-emergence action against SETVI in %” value (SETVI [16]; dosage 20 g/ha) was 100%. For the same molecule, the “Post-emergence action against VERPE in %” value (VERPE [17]) was 90%, the “Pre-emergence action against MATIN in %” value (MATIN [10]; dosage 20 g/ha) was 100% and the “Pre-emergence action against MATIN in %” value (MATIN [10]; dosage 80 g/ha) was 100%. The “Post-emergence action against MATIN in %” value (MATIN [18]; dosage 20 g/ha) was 90%, the “Pre-emergence action against ALOMY” value (ALOMY [11]) was 100% and the “Post-emergence action against VIOTR in %” value (VIOTR [19]; 5 g/ha) was 100%. For the same molecule, the “Post-emergence action against VIOTR in %” value (VIOTR [19]; 20 g/ha) was 100%, the “Pre-emergence action against VERPE in %” value (VERPE [20]; dosage 20 g/ha) was 80% and the “Pre-emergence action against VERPE in %” value (VERPE [20]; dosage 80 g/ha) was 100%. For the same molecule, the “Pre-emergence action against ECHCG in %” value (ECHCG [13]) was 100%.
For CSc1c(C(=O)Nc2nnnn2C)ccc(C(F)(F)F)c1C(=O)NC(C)C1CC1 (stereo not drawn) [Example 1-352], the “Post-emergence action at 20 g/ha against AVEFA in %” value (AVEFA [1]) was 80%, the “Pre-emergence action against SETVI in %” value (SETVI [2]; dosage 80 g/ha) was 100% and the “Pre-emergence action against ABUTH (herbicidal activity)” value (ABUTH [3]) was 100%. For the same molecule, the “Pre-emergence action against ABUTH (herbicidal activity in percent)” value (ABUTH [3]) was 100%, the “Post-emergence action against ECHCG in %” value (ECHCG [4]; dosage 5 g/ha) was 100% and the “Post-emergence action against ECHCG in %” value (ECHCG [4]; dosage 20 g/ha) was 100%. For the same molecule, the “Post-emergence action against PHBPU in %” value (PHBPU [5]; dosage 20 g/ha) was 90%, the “Pre-emergence action against VIOTR in %” value (VIOTR [6]; dosage 20 g/ha) was 100% and the “Pre-emergence action against VIOTR in %” value (VIOTR [6]; dosage 80 g/ha) was 100%. The “Pre-emergence action against AVEFA in %” value (AVEFA [7]) was 80%, the “Post-emergence action against ALOMY in %” value (ALOMY [8]) was 80% and the “Post-emergence action at 20 g/ha against AMARE in %” value (AMARE [15]) was 100%. The “Pre-emergence action against AMARE in %” value (AMARE [9]; [21]) was 100%, the “Pre-emergence action against AMARE in %” value (AMARE [9]; [22]) was 100% and the “Post-emergence action against SETVI in %” value (SETVI [16]; dosage 5 g/ha) was 80%. For the same molecule, the “Post-emergence action against SETVI in %” value (SETVI [16]; dosage 20 g/ha) was 100%, the “Post-emergence action against VERPE in %” value (VERPE [17]) was 90% and the “Pre-emergence action against MATIN in %” value (MATIN [10]; dosage 20 g/ha) was 100%. The “Pre-emergence action against MATIN in %” value (MATIN [10]; dosage 80 g/ha) was 100%, the “Post-emergence action against MATIN in %” value (MATIN [18]; dosage 5 g/ha) was 80% and the “Post-emergence action against MATIN in %” value (MATIN [18]; dosage 20 g/ha) was 90%. For the same molecule, the “Pre-emergence action against ALOMY” value (ALOMY [11]) was 80%, the “Post-emergence action against ABUTH in %” value (ABUTH [12]; dosage 20 g/ha) was 100% and the “Post-emergence action against VIOTR in %” value (VIOTR [19]; 5 g/ha) was 100%. The “Post-emergence action against VIOTR in %” value (VIOTR [19]; 20 g/ha) was 100%, the “Pre-emergence action against VERPE in %” value (VERPE [20]; dosage 20 g/ha) was 90% and the “Pre-emergence action against VERPE in %” value (VERPE [20]; dosage 80 g/ha) was 100%. The “Pre-emergence action against ECHCG in %” value (ECHCG [13]) was 100%.
